{
  "source": "patent US20110274679A1",
  "about": "“Compositions and Methods of SIRT Activation” (VDF FutureCeuticals, Inc., priority 2008, published 2011)",
  "system": "SIRT",
  "assay": "in vitro SIRT activity in treated cells, lysed after treatment (BioMol SIRT Activity Assay kit)",
  "type": "cell-based",
  "details": "depending on the cell line; positive control",
  "excerpt": "Among other suitable combinations, one exemplary SIRT activating combination of B-vitamins was formulated that included a combination of vitamin B2, B1, B3, B6, B12, and B5. Using that combination, HeLa cells were separately treated in vitro for 4 hrs, along with a reference compound (here: resveratrol) as positive control, as well as individually with the respective above vitamins at a total concentrations of 0.1% (wt/vol) of culture medium. To measure SIRT activation, the cells were lysed after treatment and SIRT activity was determined using a commercially available SIRT Activity Assay kit (BioMol, Inc.; Catalog #KI-104).\nMoreover, in vitro activation with the known SIRT activator resveratrol was, depending on the cell line, between about 15-120% of untreated control, making the SIRT activation with the vitamin compounds even more remarkable.\nIn an experiment similar to that above, FIG. 2 depicts further combinations for selected vitamin B compounds in which the columns show the results for A (Riboflavin, vitamin B2), B (Thiamine, vitamin B1), C (Niacinamide, vitamin B3), D (Pyridoxine, vitamin B6), E (Cyanocobolamin, vitamin B12), F (Ca-Panthotenate, vitamin B5), G=Blend of A-F (VSIRT), H (Pyrodoxine, vitamin B6 plus Cobalamin, vitamin B12), 0.05% each, and I (H plus Riboflavin, vitamin B2) (0.033% each). […]",
  "data": [
    {"smiles": "Oc1ccc(C=Cc2cc(O)cc(O)c2)cc1", "note": "[resveratrol]", "values": [
      {"measurement": "in vitro activation of SIRT", "result": "15-120 % of untreated control"}
    ]}
  ]
}
